Legend:
MRP7 (ABCC10) [1] = target: T1, MRP7 (ABCC10) (Homo sapiens, UniProt Q5T3U5); assay: [3H]-paclitaxel accumulation in HEK/MRP7 cells; type: cell-based; settings: 4 h treatment; 0.01 µM [3H]-paclitaxel (methods; Figure 5 legend prints 0.1 µM); 37°C; inhibitor of efflux
T1 construct: MRP7 expression vector stably transfected into HEK293 cells (HEK/MRP7); empty-vector HEK/pcDNA as control
T1 sequence (Q5T3U5 1-1492): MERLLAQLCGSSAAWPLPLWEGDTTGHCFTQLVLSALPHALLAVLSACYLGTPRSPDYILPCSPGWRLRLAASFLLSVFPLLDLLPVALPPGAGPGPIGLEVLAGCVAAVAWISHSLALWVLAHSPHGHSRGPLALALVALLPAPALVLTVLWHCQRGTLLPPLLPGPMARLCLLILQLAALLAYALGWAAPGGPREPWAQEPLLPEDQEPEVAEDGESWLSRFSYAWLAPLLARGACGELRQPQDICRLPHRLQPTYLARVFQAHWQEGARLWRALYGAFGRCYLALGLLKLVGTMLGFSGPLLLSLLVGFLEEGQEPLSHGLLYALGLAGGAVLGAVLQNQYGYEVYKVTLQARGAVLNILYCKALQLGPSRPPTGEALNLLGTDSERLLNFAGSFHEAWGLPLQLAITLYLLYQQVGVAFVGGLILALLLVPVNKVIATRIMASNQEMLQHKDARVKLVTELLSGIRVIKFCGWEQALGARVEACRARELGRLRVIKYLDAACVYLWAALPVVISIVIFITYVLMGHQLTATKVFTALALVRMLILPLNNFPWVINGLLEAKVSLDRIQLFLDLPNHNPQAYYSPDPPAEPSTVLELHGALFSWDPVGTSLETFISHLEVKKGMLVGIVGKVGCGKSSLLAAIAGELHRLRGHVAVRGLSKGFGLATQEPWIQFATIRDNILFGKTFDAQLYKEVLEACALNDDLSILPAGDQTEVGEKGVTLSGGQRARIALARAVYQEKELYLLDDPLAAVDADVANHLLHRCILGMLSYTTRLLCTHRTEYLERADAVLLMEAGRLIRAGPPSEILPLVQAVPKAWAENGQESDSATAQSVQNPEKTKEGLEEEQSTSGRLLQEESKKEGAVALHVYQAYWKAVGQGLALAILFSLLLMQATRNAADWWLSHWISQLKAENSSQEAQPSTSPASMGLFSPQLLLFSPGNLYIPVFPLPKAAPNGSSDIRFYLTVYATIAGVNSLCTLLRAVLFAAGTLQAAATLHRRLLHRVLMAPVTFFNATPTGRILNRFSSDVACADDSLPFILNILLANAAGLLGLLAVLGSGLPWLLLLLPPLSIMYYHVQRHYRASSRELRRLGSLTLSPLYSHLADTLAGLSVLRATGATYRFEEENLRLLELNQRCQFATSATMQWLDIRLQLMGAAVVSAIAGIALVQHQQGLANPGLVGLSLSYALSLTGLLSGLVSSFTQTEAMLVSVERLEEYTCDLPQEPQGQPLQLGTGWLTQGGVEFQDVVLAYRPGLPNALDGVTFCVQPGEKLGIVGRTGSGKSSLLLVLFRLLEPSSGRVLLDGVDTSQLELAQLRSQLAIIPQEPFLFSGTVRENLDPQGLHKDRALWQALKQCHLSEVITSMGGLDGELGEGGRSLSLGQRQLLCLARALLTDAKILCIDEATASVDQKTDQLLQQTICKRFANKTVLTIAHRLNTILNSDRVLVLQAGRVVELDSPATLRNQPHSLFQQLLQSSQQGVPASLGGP

MRP7 (ABCC10) [2] = target: T1, MRP7 (ABCC10); assay: cellular efflux time course, HEK/MRP7 versus HEK/pcDNA; type: cell-based; settings: labelled compound (3H); 0.01 µM; 37°C; 0-120 min

Row | Compound | fold [3H]-paclitaxel accumulation at 0.3 μM (MRP7 (ABCC10) [1]) [fold] | cellular efflux time course, HEK/MRP7 versus HEK/pcDNA (MRP7 (ABCC10) [2])
1 | COc1cc2c(cc1OC)CN(CCc1ccc(NC(=O)c3cc(OC)c(OC)cc3NC(=O)c3cnc4ccccc4c3)cc1)CC2 [Tariquidar] | 1.8 | 
2 | CC(=O)O[C@H]1C(=O)[C@@]2(C)[C@H]([C@H](OC(=O)c3ccccc3)[C@]3(O)C[C@H](OC(=O)[C@H](O)[C@@H](NC(=O)c4ccccc4)c4ccccc4)C(C)=C1C3(C)C)[C@]1(OC(C)=O)CO[C@@H]1C[C@@H]2O [[^3H]-paclitaxel] |  | HEK/MRP7 cells, but not the parental HEK/pcDNA cells, rapidly effluxed [^3H]-paclitaxel

Reference: PMC3564796, “Reversal of MRP7 (ABCC10)-Mediated Multidrug Resistance by Tariquidar” (PLoS ONE, 2013)
